Data: patent US20250051327A1, “MALT-1 MODULATORS” (EXSCIENTIA AI LIMITED, priority 2020, published 2025)
pIC50: −log10 of the molar value.

Columns and labels:
[1] = target: Recombinant human MALT-1 (amino acids 340-824) (Homo sapiens (Human), UniProt Q9UDY8); experiment: MALT-1 inhibition assay (fluorogenic substrate Ac-LRSR-Rh110-DP); assay type: biochemical; settings: recombinant human MALT-1, substrate Ac-LRSR-Rh110-DP
In short: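 MALT-1 at 3 nM final was reacted with 10 μM Ac-LRSR-Rh110-DP, with substrate addition starting the reaction. Incubation ran 60 minutes at 25° C in the dark. Percent inhibition from fluorescence across doses was fitted to a 4-parameter logistic to give IC50.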

[2] = tested on: IL-2 secretion by human effector memory T cells (TEM); experiment: Effector memory T cells IL-2 release assay; assay type: cell-based; settings: T-cell; human CD4+ effector memory T cells, CD3/CD28 bead stimulation, 24 h; read-out: CD4TC IL2 IC50
In short: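 Human CD4+ effector memory T cells from healthy-donor buffy coats were stimulated with anti-CD3/CD28 Dynabeads and exposed to 10 semi-log compound doses (0.1% DMSO) for 24 h at 37 °C. Supernatant IL-2 was measured by HTRF, and IC50 came from a 4-parameter logistic fit to maximal IL-2. Viability was checked by flow cytometry.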

Chain of Recombinant human MALT-1 (amino acids 340-824) (Q9UDY8 340-824): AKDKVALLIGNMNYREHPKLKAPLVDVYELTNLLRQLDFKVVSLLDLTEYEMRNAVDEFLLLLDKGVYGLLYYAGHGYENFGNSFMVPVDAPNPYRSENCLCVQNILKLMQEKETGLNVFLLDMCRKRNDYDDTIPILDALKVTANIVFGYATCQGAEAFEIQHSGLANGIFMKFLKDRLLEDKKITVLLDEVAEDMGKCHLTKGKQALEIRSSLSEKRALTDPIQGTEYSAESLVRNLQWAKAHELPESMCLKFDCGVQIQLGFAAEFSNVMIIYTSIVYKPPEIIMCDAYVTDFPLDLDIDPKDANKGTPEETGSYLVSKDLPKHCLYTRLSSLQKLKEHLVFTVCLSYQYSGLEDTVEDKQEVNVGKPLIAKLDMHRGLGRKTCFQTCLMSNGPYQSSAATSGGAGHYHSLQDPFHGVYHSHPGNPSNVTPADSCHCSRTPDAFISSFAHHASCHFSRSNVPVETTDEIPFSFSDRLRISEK

Row | Compound | pIC50 [1] | pIC50 [2]
1 | CN(C(=O)N1CCOCC1)[C@@H](c1ccc(N2CCCc3c2cnc2cc(Cl)nn32)cc1)C(F)(F)F [CPD0073084, N-[(1S)-1-(4-{4-chloro-2,3,7,10-tetraazatricyclo[7.4.0.0^2,6]trideca-1(9),3,5,7-tetraen-10-yl}phenyl)-2,2,2-trifluoroethyl]-N-methylmorpholine-4-carboxamide] | 6.77 | 6.59
2 | CN(C(=O)C1CCS(=O)(=O)CC1)[C@@H](c1ccc(N2CC(C)(C)c3c2cnc2cc(Cl)nn32)cc1)C(F)(F)F [CPD0019494, N-[(1S)-1-(4-{11-chloro-3,3-dimethyl-1,5,8,12-tetraazatricyclo[7.3.0.0^2,6]dodeca-2(6),7,9,11-tetraen-5-yl}phenyl)-2,2,2-trifluoroethyl]-N-methyl-1,1-dioxo-1λ^6-thiane-4-carboxamide] | 7.60 | 7.23
3 | CN(C(=O)C[C@@H]1CCS(=O)(=O)C1)[C@@H](c1ccc(N2CCCc3c2cnc2cc(Cl)nn32)cc1)C(F)(F)F (relative stereo) [CPD0072800, N-[(1S)-1-(4-{4-chloro-2,3,7,10-tetraazatricyclo[7.4.0.0^2,6]trideca-1(9),3,5,7-tetraen-10-yl}phenyl)-2,2,2-trifluoroethyl]-2-[(3rel-R)-1,1-dioxo-1λ^6-thiolan-3-yl]-N-methylacetamide] | 7.04 | 6.73
4 | C[C@@H]1CCN(c2ccc([C@H](N(C)C(=O)[C@H]3CCC(=O)NC3)C(F)(F)F)cc2)c2cnc3cc(Cl)nn3c21 (relative stereo) [CPD0074549, (3rel-S)-N-[(1S)-1-[4-[(13rel-R)-4-chloro-13-methyl-2,3,7,10-tetrazatricyclo[7.4.0.0^2,6]trideca-1(9),3,5,7-tetraen-10-yl]phenyl]-2,2,2-trifluoro-ethyl]-N-methyl-6-oxo-piperidine-3-carboxamide] | 7.43 | 6.85
5 | CN(C(=O)[C@@H]1COC(=O)N1C)[C@@H](c1ccc(N2CCCc3c2cnc2cc(Cl)nn32)cc1)C(F)(F)F (relative stereo) [CPD0073571, (4rel-S)-N-[(1S)-1-(4-{4-chloro-2,3,7,10-tetraazatricyclo[7.4.0.0^2,6]trideca-1(9),3,5,7-tetraen-10-yl}phenyl)-2,2,2-trifluoroethyl]-N,3-dimethyl-2-oxo-1,3-oxazolidine-4-carboxamide] | 7.28 | 6.82
6 | COc1ccc2ncc(Nc3ccc([C@H](N(C)C(=O)C4CCS(=O)(=O)CC4)C(F)(F)F)cc3)c(C(C)OC)c2n1 (stereo partly drawn) [CPD0019079, N-methyl-1,1-dioxo-N-[(1S)-2,2,2-trifluoro-1-(4-{[6-methoxy-4-(1-methoxyethyl)-1,5-naphthyridin-3-yl]amino}phenyl)ethyl]-1λ^6-thiane-4-carboxamide] | 6.83 | 6.99
7 | CCC(O)C(=O)N(C)[C@@H](c1ccc(N2CCCc3c2cnc2cc(Cl)nn32)cc1)C(F)(F)F (stereo partly drawn) [CPD0021576, N-[(1S)-1-(4-{4-chloro-2,3,7,10-tetraazatricyclo[7.4.0.0^2,6]trideca-1(9),3,5,7-tetraen-10-yl}phenyl)-2,2,2-trifluoroethyl]-2-hydroxy-N-methylbutanamide] | 6.84 | 6.48
8 | CC(=O)N1CCC(C(=O)N(C)[C@@H](c2ccc(N3CCCc4c3cnc3cc(Cl)nn43)cc2)C(F)(F)F)CC1 [CPD0073089, 1-acetyl-N-[(1S)-1-(4-{4-chloro-2,3,7,10-tetraazatricyclo[7.4.0.0^2,6]trideca-1(9),3,5,7-tetraen-10-yl}phenyl)-2,2,2-trifluoroethyl]-N-methylpiperidine-4-carboxamide] | 7.34 | 7.10
9 | CN(C(=O)C1CC(O)C1)[C@@H](c1ccc(N2CCCc3c2cnc2cc(Cl)nn32)cc1)C(F)(F)F (stereo partly drawn) [CPD0021565, N-[(1S)-1-(4-{4-chloro-2,3,7,10-tetraazatricyclo[7.4.0.0^2,6]trideca-1(9),3,5,7-tetraen-10-yl}phenyl)-2,2,2-trifluoroethyl]-3-hydroxy-N-methylcyclobutane-1-carboxamide] | 7.08 | 7.07
10 | CN(C(=O)C1CCSCC1)[C@@H](c1ccc(N2CCCc3c2cnc2cc(Cl)nn32)cc1)C(F)(F)F [CPD0019482, N-[(1S)-1-(4-{4-chloro-2,3,7,10-tetraazatricyclo[7.4.0.0^2,6]trideca-1(9),3,5,7-tetraen-10-yl}phenyl)-2,2,2-trifluoroethyl]-N-methylthiane-4-carboxamide] | 7.04 | 6.84
11 | CN(C(=O)C1CS(=O)(=O)C1)[C@@H](c1ccc(N2CCCc3c2cnc2cc(Cl)nn32)cc1)C(F)(F)F [CPD0021575, N-[(1S)-1-(4-{4-chloro-2,3,7,10-tetraazatricyclo[7.4.0.0^2,6]trideca-1(9),3,5,7-tetraen-10-yl}phenyl)-2,2,2-trifluoroethyl]-N-methyl-1,1-dioxo-1λ^6-thietane-3-carboxamide] | 6.91 | 6.89
12 | CN(C(=O)C1CCCOC1)[C@@H](c1ccc(N2CCCc3c2cnc2cc(Cl)nn32)cc1)C(F)(F)F (stereo partly drawn) [CPD0021572, N-[(1S)-1-(4-{4-chloro-2,3,7,10-tetraazatricyclo[7.4.0.0^2,6]trideca-1(9),3,5,7-tetraen-10-yl}phenyl)-2,2,2-trifluoroethyl]-N-methyloxane-3-carboxamide] | 6.78 | 6.71
13 | CN1CC[C@H](C(=O)N(C)[C@@H](c2ccc(N3CCCc4c3cnc3cc(Cl)nn43)cc2)C(F)(F)F)CC1=O (relative stereo) [CPD0073141, (4rel-S)-N-[(1S)-1-(4-{4-chloro-2,3,7,10-tetraazatricyclo[7.4.0.0^2,6]trideca-1(9),3,5,7-tetraen-10-yl}phenyl)-2,2,2-trifluoroethyl]-N,1-dimethyl-2-oxopiperidine-4-carboxamide] | 7.17 | 6.71
14 | CN1CCN(CC(=O)N(C)[C@@H](c2ccc(N3CCCc4c3cnc3cc(Cl)nn43)cc2)C(F)(F)F)CC1 [CPD0021746, N-[(1S)-1-(4-{4-chloro-2,3,7,10-tetraazatricyclo[7.4.0.0^2,6]trideca-1(9),3,5,7-tetraen-10-yl}phenyl)-2,2,2-trifluoroethyl]-N-methyl-2-(4-methylpiperazin-1-yl)acetamide] | 6.28 | 6.33
15 | CN(C(=O)C1COC1)[C@@H](c1ccc(N2CCCc3c2cnc2cc(Cl)nn32)cc1)C(F)(F)F [CPD0073083, N-[(1S)-1-(4-{4-chloro-2,3,7,10-tetraazatricyclo[7.4.0.0^2,6]trideca-1(9),3,5,7-tetraen-10-yl}phenyl)-2,2,2-trifluoroethyl]-N-methyloxetane-3-carboxamide] | 7.05 | 6.84
16 | CN(C(=O)[C@H]1CC[S@@](=N)(=O)CC1)[C@@H](c1ccc(N2CCC(C)(C)c3c2cnc2cc(Cl)nn32)cc1)C(F)(F)F (relative stereo) [CPD0072784, (1rel-s,4rel-s)-N-[(1S)-1-(4-{4-chloro-13,13-dimethyl-2,3,7,10-tetraazatricyclo[7.4.0.0^2,6]trideca-1(9),3,5,7-tetraen-10-yl}phenyl)-2,2,2-trifluoroethyl]-1-imino-N-methyl-1-oxo-1λ^6-thiane-4-carboxamide] | 7.13 | 7.25
17 | CO[C@@H](C)c1c(Nc2ccc(C(N(C)C(=O)C3CCS(=O)(=O)CC3)C(F)(F)F)cc2)cnn2cc(Cl)nc12 (some centres unmarked) [CPD0072849] | 7.43 | 7.26
18 | CN1C(=O)CC[C@@H]1C(=O)N(C)[C@@H](c1ccc(N2CCCc3c2cnc2cc(Cl)nn32)cc1)C(F)(F)F [CPD0073920, (2R)-N-[(1S)-1-(4-{4-chloro-2,3,7,10-tetraazatricyclo[7.4.0.0^2,6]trideca-1(9),3,5,7-tetraen-10-yl}phenyl)-2,2,2-trifluoroethyl]-N,1-dimethyl-5-oxopyrrolidine-2-carboxamide] | 7.22 | 7.03
19 | CN1CC[C@@H](C(=O)N(C)[C@@H](c2ccc(N3CCCc4c3cnc3cc(Cl)nn43)cc2)C(F)(F)F)CC1=O (relative stereo) [CPD0073142, (4rel-R)-N-[(1S)-1-(4-{4-chloro-2,3,7,10-tetraazatricyclo[7.4.0.0^2,6]trideca-1(9),3,5,7-tetraen-10-yl}phenyl)-2,2,2-trifluoroethyl]-N,1-dimethyl-2-oxopiperidine-4-carboxamide] | 7.17 | 6.91
20 | COc1ccc2ncc3c(c2n1)CCCN3c1ccc([C@H](N(C)C(=O)C2CCS(=O)(=O)CC2)C(F)(F)F)cc1 [CPD0072532, N-methyl-1,1-dioxo-N-[(1S)-2,2,2-trifluoro-1-[4-(2-methoxy-9,10-dihydro-8H-pyrido[2,3-f][1,7]naphthyridin-7-yl)phenyl]ethyl]thiane-4-carboxamide] | 6.66 | 6.26
21 | CN(C(=O)[C@H]1C[C@@](C)(O)C1)[C@@H](c1ccc(N2CCCc3c2cnc2cc(Cl)nn32)cc1)C(F)(F)F [CPD0072437, (1r,3s)-N-[(1S)-1-(4-{4-chloro-2,3,7,10-tetraazatricyclo[7.4.0.0^2,6]trideca-1(9),3,5,7-tetraen-10-yl}phenyl)-2,2,2-trifluoroethyl]-3-hydroxy-N,3-dimethylcyclobutane-1-carboxamide] | 6.91 | 6.75
22 | CN(C(=O)[C@@H]1CCC(=O)N1)[C@@H](c1ccc(N2CCCc3c2cnc2cc(Cl)nn32)cc1)C(F)(F)F (relative stereo) [CPD0073566, (2rel-S)-N-[(1S)-1-(4-{4-chloro-2,3,7,10-tetraazatricyclo[7.4.0.0^2,6]trideca-1(9),3,5,7-tetraen-10-yl}phenyl)-2,2,2-trifluoroethyl]-N-methyl-5-oxopyrrolidine-2-carboxamide] | 7.12 | 6.62
